≈ marks a conversion by molar mass, not a printed value. Calls of active or inactive are those of the source. No cut-off for these calls is given here.
Legend:
[1] = test system: Staphylococcus epidermidis; assay: Antibacterial activity against erythromycin-resistant Staphylococcus epidermidis 19-5 assessed as inhibition of visible bacterial growth incubated for 18 hrs by broth microdilution method; assay type: functional
Streptococcus pneumoniae [2] = assay: Antibacterial activity against erythromycin-resistant Streptococcus pneumoniae SPN19-8 assessed as inhibition of visible bacterial growth incubated for 18 hrs by broth microdilution method; assay type: functional
[3] = test system: Staphylococcus epidermidis; assay: Antibacterial activity against erythromycin-resistant Staphylococcus epidermidis 19-4 assessed as inhibition of visible bacterial growth incubated for 18 hrs by broth microdilution method; assay type: functional
Streptococcus agalactiae [4] = assay: Antibacterial activity against erythromycin-resistant Streptococcus agalactiae 19-8 assessed as inhibition of visible bacterial growth incubated for 18 hrs by broth microdilution method; assay type: functional
Streptococcus agalactiae [5] = assay: Antibacterial activity against erythromycin-resistant Streptococcus agalactiae 19-9 assessed as inhibition of visible bacterial growth incubated for 18 hrs by broth microdilution method; assay type: functional
Moraxella catarrhalis [6] = assay: Antibacterial activity against Moraxella catarrhalis BCA 19-6 assessed as inhibition of bacterial growth incubated for 24 hrs by CLSI based broth microdilution method; assay type: functional; details: Moraxella catarrhalis, BCA 19-6, 24 h, read-out: MIC
Streptococcus pyogenes = assay: Antibacterial activity against erythromycin-resistant Streptococcus pyogenes ATCC 19615 assessed as inhibition of visible bacterial growth incubated for 18 hrs by broth microdilution method; assay type: functional
[7] = test system: Staphylococcus epidermidis; assay: Antibacterial activity against erythromycin-resistant Staphylococcus epidermidis 19-9 assessed as inhibition of visible bacterial growth incubated for 18 hrs by broth microdilution method; assay type: functional
[8] = Cytotoxicity against mouse AML12 cells assessed as reduction in cell viability incubated for 48 hrs by MTT assay; assay type: toxicity, cell-based
[9] = test system: Staphylococcus epidermidis; assay: Antibacterial activity against erythromycin-resistant Staphylococcus epidermidis 19-11 assessed as inhibition of visible bacterial growth incubated for 18 hrs by broth microdilution method; assay type: functional
[10] = test system: Staphylococcus epidermidis; assay: Antibacterial activity against erythromycin-resistant Staphylococcus epidermidis 19-8 assessed as inhibition of visible bacterial growth incubated for 18 hrs by broth microdilution method; assay type: functional
Enterococcus faecalis = assay: Antibacterial activity against Enterococcus faecalis ATCC 51575 assessed as inhibition of visible bacterial growth; assay type: functional, organism-based
Enterococcus faecium = assay: Antibacterial activity against vancomycin-resistant Enterococcus faecium assessed as inhibition of visible bacterial growth; assay type: functional
Streptococcus pneumoniae [11] = assay: Antibacterial activity against erythromycin-resistant Streptococcus pneumoniae SPN19-14 assessed as inhibition of visible bacterial growth incubated for 18 hrs by broth microdilution method; assay type: functional
Haemophilus influenzae [12] = assay: Antibacterial activity against Haemophilus influenzae HIN 19-18 assessed as inhibition of bacterial growth incubated for 20 to 24 hrs by CLSI based broth microdilution method; assay type: functional; details: HIN 19-18, time 20-24 hrs
Moraxella catarrhalis [13] = assay: Antibacterial activity against Moraxella catarrhalis BCA 19-5 assessed as inhibition of bacterial growth incubated for 24 hrs by CLSI based broth microdilution method; assay type: functional; details: Moraxella catarrhalis, BCA 19-5, 24 h, read-out: MIC
[14] = test system: Staphylococcus epidermidis; assay: Antibacterial activity against erythromycin-resistant Staphylococcus epidermidis 19-6 assessed as inhibition of visible bacterial growth incubated for 18 hrs by broth microdilution method; assay type: functional
Streptococcus pneumoniae [15] = assay: Antibacterial activity against erythromycin-resistant Streptococcus pneumoniae SPN19-13 assessed as inhibition of visible bacterial growth incubated for 18 hrs by broth microdilution method; assay type: functional
Moraxella catarrhalis [16] = assay: Antibacterial activity against Moraxella catarrhalis BCA 19-31 assessed as inhibition of bacterial growth incubated for 24 hrs by CLSI based broth microdilution method; assay type: functional; details: BCA 19-31, 24 h
[17] = test system: Staphylococcus epidermidis; assay: Potency index, ratio of telithromycin MIC to test compound MIC for antibacterial activity against erythromycin-resistant Staphylococcus epidermidis 19-9 assessed as inhibition of visible bacterial growth incubated for 18 hrs by broth microdilution method; assay type: functional
[18] = test system: Staphylococcus epidermidis; assay: Potency index, ratio of telithromycin MIC to test compound MIC for antibacterial activity against erythromycin-resistant Staphylococcus epidermidis 19-5 assessed as inhibition of visible bacterial growth incubated for 18 hrs by broth microdilution method; assay type: functional
Staphylococcus aureus = assay: Antibacterial activity against Staphylococcus aureus ATCC 700699 assessed as inhibition of visible bacterial growth; assay type: functional
[19] = test system: Staphylococcus epidermidis; assay: Potency index, ratio of telithromycin MIC to test compound MIC for antibacterial activity against erythromycin-resistant Staphylococcus epidermidis 19-6 assessed as inhibition of visible bacterial growth incubated for 18 hrs by broth microdilution method; assay type: functional
Streptococcus pneumoniae [20] = assay: Potency index, ratio of telithromycin MIC to test compound MIC for antibacterial activity against Streptococcus pneumoniae SPN19-13 assessed as inhibition of visible bacterial growth incubated for 18 hrs by broth microdilution method; assay type: functional
Streptococcus pneumoniae [21] = assay: Potency index, ratio of telithromycin MIC to test compound MIC for antibacterial activity against Streptococcus pneumoniae SPN19-14 assessed as inhibition of visible bacterial growth incubated for 18 hrs by broth microdilution method; assay type: functional
Haemophilus influenzae [22] = assay: Antibacterial activity against Haemophilus influenzae HIN 19-15 assessed as inhibition of bacterial growth incubated for 20 to 24 hrs by CLSI based broth microdilution method; assay type: functional; details: time 20-24 hrs
[23] = test system: Staphylococcus epidermidis; assay: Potency index, ratio of telithromycin MIC to test compound MIC for antibacterial activity against erythromycin-resistant Staphylococcus epidermidis 19-11 assessed as inhibition of visible bacterial growth incubated for 18 hrs by broth microdilution method; assay type: functional
[24] = test system: Staphylococcus epidermidis; assay: Potency index, ratio of telithromycin MIC to test compound MIC for antibacterial activity against erythromycin-resistant Staphylococcus epidermidis 19-4 assessed as inhibition of visible bacterial growth incubated for 18 hrs by broth microdilution method; assay type: functional
[25] = test system: Staphylococcus epidermidis; assay: Potency index, ratio of telithromycin MIC to test compound MIC for antibacterial activity against erythromycin-resistant Staphylococcus epidermidis 19-8 assessed as inhibition of visible bacterial growth incubated for 18 hrs by broth microdilution method; assay type: functional
Streptococcus pneumoniae [26] = assay: Potency index, ratio of telithromycin MIC to test compound MIC for antibacterial activity against Streptococcus pneumoniae SPN19-8 assessed as inhibition of visible bacterial growth incubated for 18 hrs by broth microdilution method; assay type: functional

| SMILES | MIC [1] [µg/mL] | MIC (Streptococcus pneumoniae [2]) [µg/mL] | MIC [3] [µg/mL] | MIC (Streptococcus agalactiae [4]) [µg/mL] | MIC (Streptococcus agalactiae [5]) [µg/mL] | MIC (Moraxella catarrhalis [6]) [µg/mL] | MIC (Streptococcus pyogenes) [µg/mL] | MIC [7] [µg/mL] | CC50 at 48 h [8] [µM] | MIC [9] [µg/mL] | MIC [10] [µg/mL] | MIC (Enterococcus faecium) [µg/mL] | MIC (Streptococcus pneumoniae [11]) [µg/mL] | MIC (Haemophilus influenzae [12]) [µg/mL] | MIC (Moraxella catarrhalis [13]) [µg/mL] | MIC [14] [µg/mL] | MIC (Streptococcus pneumoniae [15]) [µg/mL] | MIC (Moraxella catarrhalis [16]) [µg/mL] | also measured |
| --- | --- | --- | --- | --- | --- | --- | --- | --- | --- | --- | --- | --- | --- | --- | --- | --- | --- | --- | --- |
| CC[C@H]1OC(=O)[C@@](C)(F)C(=O)[C@H](C)[C@@H](O[C@@H]2O[C@H](C)C[C@H](N(C)C)[C@H]2O)[C@](C)(OC)C[C@@H](C)C(=O)[C@H](C)[C@H]2N(CCCOC(=O)Nc3ccc(C(C)C)cc3)C(=O)O[C@]12C | < 0.03 | 2 (≈ 2.35 µM) | 0.125 (≈ 0.147 µM) | < 0.03 | 4 (≈ 4.71 µM) | 0.25 (≈ 0.294 µM) | < 0.03 | 1 (≈ 1.18 µM) | 25.5 | 0.25 (≈ 0.294 µM) | < 0.03 | 16 (≈ 18.8 µM) | 1 (≈ 1.18 µM) | 16 (≈ 18.8 µM) | 0.5 (≈ 0.588 µM) | 0.25 (≈ 0.294 µM) | 1 (≈ 1.18 µM) | 1 (≈ 1.18 µM) | Activity (Enterococcus faecalis): Active |
| CC[C@H]1OC(=O)[C@@](C)(F)C(=O)[C@H](C)[C@@H](O[C@@H]2O[C@H](C)C[C@H](N(C)C)[C@H]2O)[C@](C)(OC)C[C@@H](C)C(=O)[C@H](C)[C@H]2N(CCCOC(=O)Nc3ccc4ccccc4c3)C(=O)O[C@]12C | < 0.03 | 0.25 (≈ 0.291 µM) | < 0.03 | < 0.03 | 0.5 (≈ 0.583 µM) | < 0.03 | < 0.03 | 0.125 (≈ 0.146 µM) | 18.5 | < 0.03 | < 0.03 | 16 (≈ 18.6 µM) | < 0.03 | 2 (≈ 2.33 µM) | < 0.03 | < 0.03 | < 0.03 | < 0.03 | Ratio [17]: 4; Ratio [18]: 4; MIC (Staphylococcus aureus): 16 µg/mL (≈ 18.6 µM); Ratio [19]: 4; Ratio (Streptococcus pneumoniae [20]): <4; Ratio (Streptococcus pneumoniae [21]): <4; MIC (Haemophilus influenzae [22]): 8 µg/mL (≈ 9.32 µM); Ratio [23]: 4; Ratio [24]: 4; Ratio [25]: 4; Ratio (Streptococcus pneumoniae [26]): <4 |

From ChEMBL document CHEMBL5543097, “Synthesis and structure-activity relationships of novel 14-membered 2-fluoro ketolides with structural modification at the C11 position” (Eur J Med Chem, 2024)
